Structures can show the parent of a compound that is named as a salt. Where two headings read alike, the source gives them in different places.
Legend:
[1] = biological target: human CDK4 and genetically truncated (1-264) cyclin D3 (Homo sapiens, UniProt P11802); assay: Inhibition of CDK4/Cyclin D Retinoblastoma Kinase Activity; type: biochemical; details: for Ki: apparent Ki, CDK4/truncated cyclin D3, Rb fragment substrate, 25 μM ATP
In short: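 Apparent Ki values derive from fitting activity at varied inhibitor concentrations to a competitive (or competitive tight-binding) model. Kinase reactions used 5 nM CDK4/cyclin D3(1-264), Rb fragment substrate and 25 μM ATP. Incubation ran 20 min at 30 °C, extended to 60 min under linear conditions for tight binders.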

HCT-116 cell line = assay: Inhibition of cell growth, tetrazolium salt (MTT) assay; type: cell-based; details: for HCT-116 % Inhibition at 0.25 μM: 0.25 μM compound; for IC50: Homo sapiens, HCT-116, 120 h, MTT, three to five days, read-out: HCT-116 IC50
In short: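 First, cells were seeded in McCoy's 5A medium and held 4 h. Next, inhibitor concentrations in 0.5% (v/v) DMSO were applied for three to five days at 37° C, 5% CO2. Finally, after 4 h with 0.2 mg/mL MTT and medium removal, solubilized formazan was measured at 540 nm.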

CDK2/Cyclin A = CDK2/Cyclin A (Homo sapiens, UniProt P24941); assay: Inhibition of CDK2/Cyclin A Retinoblastoma Kinase Activity; type: biochemical; details: for CDK2 % Inhibition At 0.03 μM: Table 2; for Ki: apparent Ki, CDK2/proteolyzed cyclin A, Rb fragment substrate, 25 μM ATP
In short: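 Percent inhibition is calculated against DMSO-only wells after subtracting no-enzyme background. The enzyme is human CDK2 complexed with proteolyzed cyclin A, used at 10 nM or 19 nM on an Rb fragment with 25 μM [32/33P]ATP, at pH 7.4 and 30° C.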

[2] = 0.1 μM compound, HCT-116, Table 3
[3] = 0.1 μM compound, HCT-116, Table 4

Chain of human CDK4 and genetically truncated (1-264) cyclin D3 (P11802 whole entry, the tested form may be a part): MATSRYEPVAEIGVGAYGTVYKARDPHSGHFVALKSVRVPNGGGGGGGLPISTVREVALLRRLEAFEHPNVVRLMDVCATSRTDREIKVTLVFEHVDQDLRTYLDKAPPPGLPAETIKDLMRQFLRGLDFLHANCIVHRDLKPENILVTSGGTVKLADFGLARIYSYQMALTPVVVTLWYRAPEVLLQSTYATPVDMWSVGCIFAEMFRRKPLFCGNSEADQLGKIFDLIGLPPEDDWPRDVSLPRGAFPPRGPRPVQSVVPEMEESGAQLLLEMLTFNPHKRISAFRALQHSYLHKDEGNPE
Chain of human CDK4 and genetically truncated (1-264) cyclin D3 (P30281 1-264 partner): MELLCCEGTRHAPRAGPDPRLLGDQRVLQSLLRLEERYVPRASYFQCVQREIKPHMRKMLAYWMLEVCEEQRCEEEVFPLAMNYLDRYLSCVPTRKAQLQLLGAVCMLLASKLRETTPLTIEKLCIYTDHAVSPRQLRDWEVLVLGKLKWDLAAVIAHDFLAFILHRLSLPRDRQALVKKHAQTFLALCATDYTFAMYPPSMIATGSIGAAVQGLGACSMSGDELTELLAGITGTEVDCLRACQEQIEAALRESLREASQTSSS

Row | Structure (SMILES) | Ki [1] [µM] | IC50 (HCT-116 cell line; first HCT-116 column (c4)) [µM] | IC50 (HCT-116 cell line; second HCT-116 column (c5)) [µM] | Ki (CDK2/Cyclin A) [µM] | further results
1 | COc1ccc(NC(=O)N2CCC(Nc3nc(N)c(C(=O)c4c(F)cccc4F)s3)CC2)cc1 [Example O21] | – | – | – | – | CDK4 % Inhibition at 0.03 μM ([1]; 0.03 μM compound, Table 2, 0.03 µM): 13%; HCT-116 % Inhibition at 0.25 μM (HCT-116 cell line; HCT-116, Table 2, 0.25 µM): 21%; CDK2 % Inhibition At 0.03 μM (CDK2/Cyclin A; 0.03 μM compound, 0.03 µM): 37%
2 | CC1CCC(NCCS(=O)(=O)N2CCC(Nc3nc(N)c(C(=O)c4c(F)cccc4F)s3)CC2)CC1 (mixture of isomers) [Example K40, (4-Amino-2-{1-[2-(4(cis/trans)-methyl-cyclohexylamino)-ethanesulfonyl]-piperidin-4-ylamino}-thiazol-5-yl)-(2,6-difluoro-phenyl)-methanone] | 0.0021 | 0.066 | 0.28 | 0.00051 | –
3 | Nc1nc(NC2CCN(C(=O)Nc3cc(C(F)(F)F)ccc3F)CC2)sc1C(=O)c1c(F)cccc1F [Example O85] | – | – | – | – | CDK4 % Inhibition at 0.03 μM ([1]; 0.03 μM compound, Table 2): 8%; HCT-116 % Inhibition at 0.25 μM (HCT-116 cell line; HCT-116, Table 2): 47%; CDK2 % Inhibition At 0.03 μM (CDK2/Cyclin A; 0.03 μM compound): 34%
4 | Nc1nc(NC2CCN(S(=O)(=O)CCN3CCCC3c3ccccc3)CC2)sc1C(=O)c1c(F)cccc1F (stereo not drawn) [Example K29, Trifluoroacetic Acid Salt] | 0.0016 | 0.16 | 0.51 | 0.0037 | –
5 | CCC(=O)N1CCC(Nc2nc(N)c(C(=O)c3c(F)cccc3F)s2)CC1 [Example R172] | – | – | – | – | CDK4 % Inhibition at 0.03 μM ([1]; at 0.03 μM): 49%; HCT-116 % Inhibition at 0.1 μM (HCT-116 cell line; HCT-116 cells, at 0.1 μM): 0%; HCT-116 5 Inhibition at 0.25 μM (HCT-116 cell line; HCT-116 cells): 49; CDK2 % Inhibition at 0.03 μM (CDK2/Cyclin A; at 0.03 μM): 34%
6 | Nc1nc(NC2CCN(C(=O)c3cccc(Cl)c3Cl)CC2)sc1C(=O)c1c(F)cccc1F [Example R106] | – | – | – | – | CDK4 % Inhibition at 0.03 μM ([1]; at 0.03 μM): 19%; HCT-116 % Inhibition at 0.1 μM (HCT-116 cell line; HCT-116 cells, at 0.1 μM): 2%; HCT-116 5 Inhibition at 0.25 μM (HCT-116 cell line; HCT-116 cells): 72; CDK2 % Inhibition at 0.03 μM (CDK2/Cyclin A; at 0.03 μM): 2%
7 | CCN1CCN(C(=O)N2CCC(Nc3nc(N)c(C(=O)c4c(F)cccc4F)s3)CC2)C(=O)C1=O [Example R83] | – | – | – | – | CDK4 % Inhibition at 0.03 μM ([1]; at 0.03 μM): 52%; HCT-116 % Inhibition at 0.1 μM (HCT-116 cell line; HCT-116 cells, at 0.1 μM): 0%; HCT-116 5 Inhibition at 0.25 μM (HCT-116 cell line; HCT-116 cells): 45; CDK2 % Inhibition at 0.03 μM (CDK2/Cyclin A; at 0.03 μM): 21%
8 | Nc1nc(NC2CCN(S(=O)(=O)c3ccc(OCCNC4CC4)nc3)CC2)sc1C(=O)c1c(F)cccc1F [Example H21, (4-Amino-2-{1-[6-(2-cyclopropylamino-ethoxy)-3-sulfonyl]-piperidin-4-ylamino}-thiazol-5-yl)-(2,6-difluoro-phenyl)-methanone Hydrochloride Salt] | 0.00028 | 0.11 | 1.5 | 0.0015 | –
9 | CCc1ccc(S(=O)(=O)N2CCC(Nc3nc(N)c(C(=O)c4c(F)cccc4F)s3)CC2)cc1 [Example P30] | – | – | – | – | CDK4 % Inhibition at 0.03 μM ([1]; 0.03 μM compound, Table 3): 61%; HCT-116 % Inhibition at 0.1 μM (HCT-116 cell line; [2]): 9%; HCT-116 % Inhibition at 0.25 μM (HCT-116 cell line; HCT-116, Table 3): 17%; CDK2 % Inhibition at 0.03 μM (CDK2/Cyclin A; 0.03 μM compound, Table 3): 53%
10 | CN(C)CCc1ncc(S(=O)(=O)N2CCC(Nc3nc(N)c(C(=O)c4c(F)cccc4F)s3)CC2)cn1 [Example N12, (4-Amino-2-{1-[2-(2-dimethylamino-ethyl)-pyrimidine-5-sulfonyl]-piperidine-4-ylamino}-thiazol-5-yl)-(2,6-difluoro-phenyl)-methanone Hydrochloride Salt.] | 0.00062 | 0.067 | 0.13 | 0.0017 | –
11 | N#Cc1cccc(S(=O)(=O)N2CCC(Nc3nc(N)c(C(=O)c4c(F)cccc4F)s3)CC2)c1 [Example P77] | – | – | – | – | CDK4 % Inhibition at 0.03 μM ([1]; 0.03 μM compound, Table 3): 43%; HCT-116 % Inhibition at 0.1 μM (HCT-116 cell line; [2]): 21%; HCT-116 % Inhibition at 0.25 μM (HCT-116 cell line; HCT-116, Table 3): 20%; CDK2 % Inhibition at 0.03 μM (CDK2/Cyclin A; 0.03 μM compound, Table 3): 19%
12 | CC(C)c1cc(C(C)C)c(S(=O)(=O)N2CCC(Nc3nc(N)c(C(=O)c4c(F)cccc4F)s3)CC2)c(C(C)C)c1 [Example P9] | – | – | – | – | CDK4 % Inhibition at 0.03 μM ([1]; 0.03 μM compound, Table 3): 46%; HCT-116 % Inhibition at 0.1 μM (HCT-116 cell line; [2]): 13%; HCT-116 % Inhibition at 0.25 μM (HCT-116 cell line; HCT-116, Table 3): 35%; CDK2 % Inhibition at 0.03 μM (CDK2/Cyclin A; 0.03 μM compound, Table 3): −17%
13 | CN1CCC[C@@H](Oc2ccc(S(=O)(=O)N3CCC(Nc4nc(N)c(C(=O)c5c(F)cccc5F)s4)CC3)cn2)C1 [Example H26, (4-Amino-2-{1-[6-(1-methyl-piperidin-3R-yloxy)-pyridine-3-sulfonyl]-piperidin-4-ylamino}-thiazol-5-yl)-(2,6-difluoro-phenyl)-methanone Hydrochloride] | 0.0013 | 0.022 | 0.08 | 0.00037 | –
14 | CC1=NC(C)CN1c1ccc(S(=O)(=O)N2CCC(Nc3nc(N)c(C(=O)c4c(F)cccc4F)s3)CC2)cn1 (stereo not drawn) [Example G23, 1-(4-Amino-2-{1-[6-(2,4-dimethyl-4,5-dihydro-imidazol-1-yl)-pyridin-3-sulfonyl]-piperidin-4-ylamino}-thiazol-5-yl)-1-(2,6-difluoro-phenyl)-methanone Hydrochloride] | 0.00044 | 0.75 | 5 | < 0.001 | –
15 | Nc1nc(NC2CCN(C(=O)C3CCCCC3)CC2)sc1C(=O)c1c(F)cccc1F [Example Q59] | – | – | – | – | CDK4 % Inhibition at 0.03 μM ([1]; 0.03 μM compound, Table 4): 14%; HCT-116 % Inhibition at 0.1 μM (HCT-116 cell line; [3]): 0%; HCT-116 % Inhibition at 0.25 μM (HCT-116 cell line; HCT-116, Table 4): 30%; CDK2 % Inhibition at 0.03 μM (CDK2/Cyclin A; 0.03 μM compound, Table 4): 10%
16 | Nc1nc(NC2CCN(C(=O)c3cc(Cl)cc(Cl)c3)CC2)sc1C(=O)c1c(F)cccc1F [Example R134] | – | – | – | – | CDK4 % Inhibition at 0.03 μM ([1]; at 0.03 μM): 51%; HCT-116 % Inhibition at 0.1 μM (HCT-116 cell line; HCT-116 cells, at 0.1 μM): 45%; HCT-116 5 Inhibition at 0.25 μM (HCT-116 cell line; HCT-116 cells): 95; CDK2 % Inhibition at 0.03 μM (CDK2/Cyclin A; at 0.03 μM): 29%
17 | CC(=O)Nc1ccc(S(=O)(=O)N2CCC(Nc3nc(N)c(C(=O)c4c(F)cccc4F)s3)CC2)cc1 [Example P17] | – | – | – | – | CDK4 % Inhibition at 0.03 μM ([1]; 0.03 μM compound, Table 3): 78%; HCT-116 % Inhibition at 0.1 μM (HCT-116 cell line; [2]): 14%; HCT-116 % Inhibition at 0.25 μM (HCT-116 cell line; HCT-116, Table 3): 36%; CDK2 % Inhibition at 0.03 μM (CDK2/Cyclin A; 0.03 μM compound, Table 3): 77%
18 | Nc1nc(NC2CCN(C(=O)c3ccc4ccccc4c3)CC2)sc1C(=O)c1c(F)cccc1F [Example Q63] | – | – | – | – | CDK4 % Inhibition at 0.03 μM ([1]; 0.03 μM compound, Table 4): 57%; HCT-116 % Inhibition at 0.1 μM (HCT-116 cell line; [3]): 5%; HCT-116 % Inhibition at 0.25 μM (HCT-116 cell line; HCT-116, Table 4): 25%; CDK2 % Inhibition at 0.03 μM (CDK2/Cyclin A; 0.03 μM compound, Table 4): 39%
19 | C[C@@H]1CN(CCCS(=O)(=O)N2CCC(Nc3nc(N)c(C(=O)c4c(F)cccc4F)s3)CC2)C[C@H](C)N1 [Example K1, 1-(4-Amino-2-{1-[3-(3,5-cis-dimethylpiperazin-1-yl)-propane-1-sulfonyl]-piperidin-4-ylamino}-thiazol-5-yl)-1-(2,6-difluoro-phenyl)-methanone] | 0.002 | > 5 | > 5 | 0.0078 | –
20 | Nc1nc(NC2CCN(S(=O)(=O)c3ccc(NCCO)nc3)CC2)sc1C(=O)c1c(F)cccc1F [Example G3, 1-(4-Amino-2{1-[6-(2-hydroxy-ethylamino)-pyridine-3-sulfonyl]-piperidin-4-ylamino}-thiazol-5-yl)-1-(2,6-difluoro-phenyl)-methanone] | 0.0012 | 1.7 | > 5 | < 0.001 | –
21 | Nc1nc(NC2CCN(S(=O)(=O)c3cnc(Cl)nc3)CC2)sc1C(=O)c1c(F)cccc1F [Example F47] | 0.00069 | 0.9 | 2.3 | 0.00027 | –
22 | Nc1nc(NC2CCN(S(=O)(=O)CCCSc3ccncc3)CC2)sc1C(=O)c1c(F)cccc1F [Example K23, 1-(4-Amino-2-{1-[3-(pyridin-4-ylsulfanyl)-propane-1-sulfonyl]-piperidin-4-ylamino}-thiazol-5-yl)-1-(2,6-difluoro-phenyl)-methanone.] | 0.003 | 0.46 | > 0.5 | 0.0028 | –
23 | Nc1nc(NC2CCN(C(=O)c3ccno3)CC2)sc1C(=O)c1c(F)cccc1F [Example C10, 1-{4-Amino-2-[1-(1-isoxazol-5-yl-methanoyl)-piperidin-4-ylamino]-thiazol-5-yl}1-(2,6-difluoro-phenyl)-methanone] | 0.022 | 0.75 | 2.1 | 0.039 | –
24 | Nc1nc(NC2CCN(C(=O)CNc3ccc(O)cc3)CC2)sc1C(=O)c1c(F)cccc1F [Example R169] | – | – | – | – | CDK4 % Inhibition at 0.03 μM ([1]; at 0.03 μM): 40%; HCT-116 % Inhibition at 0.1 μM (HCT-116 cell line; HCT-116 cells, at 0.1 μM): 0%; HCT-116 5 Inhibition at 0.25 μM (HCT-116 cell line; HCT-116 cells): 39; CDK2 % Inhibition at 0.03 μM (CDK2/Cyclin A; at 0.03 μM): 22%
25 | CN(C)CCOc1ncc(S(=O)(=O)N2CCC(Nc3nc(N)c(C(=O)c4c(F)cccc4F)s3)CC2)cn1 [Example H24, (4-Amino-2-{1-[2-(2-dimethylamino-ethoxy)-pyrimidine-5-sulfonyl]-piperidin-4-ylamino}-thiazol-5-yl)-(2,6-difluoro-phenyl)-methanone Trifluoroacetic Acid Salt] | 0.00041 | 0.14 | 2 | 0.0018 | –
26 | CN(C)c1ccc(S(=O)(=O)N2CCC(Nc3nc(N)c(C(=O)c4c(F)cccc4F)s3)CC2)cn1 [Example F19, 1-{4-Amino-2-[1-(6-dimethylamino-pyridine-3-sulfonyl)-piperidin-4-ylamino]-thiazol-5-yl}-1-(2,6-difluoro-phenyl)-methanone] | 0.0017 | 0.048 | 0.2 | 0.0032 | –
